Columns and labels:
[1] = molecular target: T1, glucocorticoid receptor (GR) (Homo sapiens, UniProt P04150); test: Transactivation reporter assay (renilla luciferase, glucocorticoid response element) in A549 cells; format: cell-based; settings: 1 h compound then 0.5ng/ml TNFα 15 hours, read-out: Transactivation (GR) ED50
T1 construct: two reporter plasmids have been generated and introduced separately into A549 human lung epithelial cells by transfection; endogenous in cells; host or cells: A549 human lung epithelial cells stably carrying a renilla luciferase reporter with 3 copies of the consensus GRE
T1 sequence (P04150 1-777): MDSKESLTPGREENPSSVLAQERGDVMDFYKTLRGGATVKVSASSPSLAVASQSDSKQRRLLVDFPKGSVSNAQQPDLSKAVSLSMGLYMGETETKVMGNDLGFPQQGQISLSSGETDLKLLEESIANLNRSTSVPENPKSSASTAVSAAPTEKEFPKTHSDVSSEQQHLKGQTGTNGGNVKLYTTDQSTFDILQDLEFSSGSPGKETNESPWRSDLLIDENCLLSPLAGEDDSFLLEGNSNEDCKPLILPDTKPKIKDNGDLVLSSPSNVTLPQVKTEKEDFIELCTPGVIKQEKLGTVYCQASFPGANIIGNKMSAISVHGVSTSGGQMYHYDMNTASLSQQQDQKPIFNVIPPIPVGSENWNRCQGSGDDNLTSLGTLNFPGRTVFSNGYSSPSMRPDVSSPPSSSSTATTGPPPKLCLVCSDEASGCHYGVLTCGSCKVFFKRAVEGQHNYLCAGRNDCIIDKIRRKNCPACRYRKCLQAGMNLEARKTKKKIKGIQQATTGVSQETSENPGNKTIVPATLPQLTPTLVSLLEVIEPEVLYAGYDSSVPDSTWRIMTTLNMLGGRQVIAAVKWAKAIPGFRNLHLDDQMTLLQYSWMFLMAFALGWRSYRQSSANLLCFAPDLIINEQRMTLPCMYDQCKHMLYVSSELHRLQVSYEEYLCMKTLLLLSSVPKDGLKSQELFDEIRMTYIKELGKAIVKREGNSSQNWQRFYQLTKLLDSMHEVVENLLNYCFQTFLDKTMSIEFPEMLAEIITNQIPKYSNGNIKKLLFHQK
Source text: (§1) The glucocorticoid receptor (GR) can function in at least two distinct mechanisms, by upregulating gene expression through the direct binding of GR to specific sequences in gene promoters, and by downregulating gene expression that is being driven by other transcription factors (such as NFκB or AP-1) through their direct interaction with GR.
In a variant of the above method, to monitor these functions, two reporter plasmids have been generated and introduced separately into A549 human lung epithelial cells by transfection. The first cell line contains the firefly luciferase reporter gene under the control of a synthetic promoter that specifically responds to activation of the transcription factor NFκB when stimulated with TNFα. The second cell line contains the renilla luciferase reporter gene under the control of a synthetic promotor that comprises 3 copies of the consensus glucocorticoid response element, and which responds to direct stimulation by glucocorticoids. […] After incubation for 1 h 0.5ng/ml TNFα (R&D Systems) was added and after a further 15 hours at 37° C., the levels of firefly and renilla luciferase were measured using the Packard Firelite kit following the manufacturers' directions. Dose response curves were constructed from which EC50 values were determined.

NFκB = test: Transrepression reporter assay (firefly luciferase, NFκB promoter, TNFα stimulated) in A549 cells; format: cell-based; settings: Homo sapiens, 1 h compound then 0.5ng/ml TNFα 15 hours, read-out: Transrepression (NFκB) ED50
Source text: as §1
The first cell line contains the firefly luciferase reporter gene under the control of a synthetic promoter that specifically responds to activation of the transcription factor NFκB when stimulated with TNFα. The second cell line contains the renilla luciferase reporter gene under the control of a synthetic promotor that comprises 3 copies of the consensus glucocorticoid response element, and which responds to direct stimulation by glucocorticoids. Simultaneous measurement of transactivation and transrepression was conducted by mixing the two cell lines in a 1:1 ratio in 96 well plate (40,000 cells per well) and growing overnight at 37° C. Test compounds were dissolved in DMSO, and added to the cells at a final DMSO concentration of 0.7%. […] Dose response curves were constructed from which EC50 values were determined.

glucocorticoid receptor = molecular target: T2, glucocorticoid receptor (Homo sapiens, UniProt P04150); test: In vitro functional glucocorticoid assays, metabolite versus parent; format: cell-based
T2 construct: endogenous in cells
T2 sequence (P04150 1-777): T1 sequence (P04150 1-777)
Procedure: Compound (I) undergoes highly efficient hepatic metabolism to yield the 17-β carboxylic acid (X) as the sole major metabolite in rat and human in vitro systems.
The functional assay was based on that described by K. P. Ray et al., Biochem J. (1997), 328, 707-715. A549 cells stably transfected with a reporter gene containing the NF-κB responsive elements from the ELAM gene promoter coupled to sPAP (secreted alkaline phosphatase) were treated with test compounds at appropriate doses for 1 hour at 37° C. The cells were then stimulated with tumour necrosis factor (TNF, 10ng/ml) for 16 hours, at which time the amount of alkaline phosphatase produced is measured by a standard colourimetric assay. Dose response curves were constructed from which EC50 values were estimated.
In a variant of the above method, to monitor these functions, two reporter plasmids have been generated and introduced separately into A549 human lung epithelial cells by transfection. […] After incubation for 1 h 0.5ng/ml TNFα (R&D Systems) was added and after a further 15 hours at 37° C., the levels of firefly and renilla luciferase were measured using the Packard Firelite kit following the manufacturers' directions. Dose response curves were constructed from which EC50 values were determined.

lung eosinophilia = test: Ovalbumin sensitised Brown Norway rat eosinophilia model; format: in vivo; settings: single dose of 30 μg, intra-tracheal suspension in saline 30 min prior to ovalbumin challenge
Procedure: Pharmacological activity in vivo was assessed in an ovalbumin sensitised Brown Norway rat eosinophilia model. This model is designed to mimic allergen induced lung eosinophilia, a major component of lung inflammation in asthma.

thymus weight = test: Rat model of thymus involution; format: in vivo; settings: 3 daily IT doses of 100 μg
[2] = Pharmacokinetics after intra-tracheal dry powder dosing in the pig; format: in vivo; settings: 1 mg intra-tracheal, LLOQ 10 pg/mL compound (I), 20pg/mL fluticasone propionate
Procedure: Serial blood samples were taken for up to 8 h following dosing.

| SMILES | EC50 [1] [nM] | EC50 (NFκB) [nM] | fold less active than the parent compound (glucocorticoid receptor) [fold] | inhibition of lung eosinophilia (lung eosinophilia) [%] | reduction of thymus weight (thymus weight) [%] | time after dosing up to which quantifiable in plasma [2] |
| --- | --- | --- | --- | --- | --- | --- |
| C[C@@H]1CCC2C3C[C@H](F)C4=CC(=O)C=C[C@]4(C)[C@@]3(F)[C@@H](O)C[C@]2(C)[C@@]1(OC(=O)c1ccco1)C(=O)O (stereo partly drawn) [Metabolite (X)] | > 250 | > 1000 | > 1000 | – | – | – |
| CCC(=O)O[C@]1(C(=O)SCF)[C@H](C)C[C@H]2[C@@H]3C[C@H](F)C4=CC(=O)C=C[C@]4(C)[C@@]3(F)[C@@H](O)C[C@@]21C [Fluticasone propionate, 6α, 9α-Difluoro-17α-(1-oxopropoxy)-11β-hydroxy-16α-methyl-3-oxo-androsta-1,4-diene-17β-carbothioic acid S-fluoromethyl ester, reference compound] | – | – | – | 41 | 78 | up to 8 hours |
